Measurements from PubChem BioAssay (NCI).
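Growth conditions: 96-well plates. Treatment: test compound, 48 hours, 5 concentrations. Analysis: linear interpolation between bracketing concentrations; unreached endpoints set to highest concentration. GI50 = concentration required for 50% inhibition of growth. TGI is the concentration that stops growth completely.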

Legend:
Assay in all cases: NCI-60 cell line screen, 48 h
[1] = system: MALME-3M melanoma
[2] = system: NCI-H226 lung
[3] = system: LOX IMVI melanoma
[4] = system: OVCAR-5 ovarian
[5] = system: SK-MEL-28 melanoma
[6] = system: MOLT-4 leukemia
[7] = system: SF-295 CNS
[8] = system: HOP-92 NSCLC
[9] = system: TK-10 renal
[10] = system: HCT-116 colon

## O=c1ccc2nc(-c3ccccc3)nn(-c3ccccn3)c-2c1
[1]
  GI50: 1.92 µM
  TGI: 3.56 µM
[2]
  GI50: 20.4 µM
  TGI: 57.5 µM
[3]
  GI50: 4.03 µM
  TGI: 25.3 µM
[4]
  GI50: 21.9 µM
  TGI: 54.9 µM
[5]
  GI50: 12.3 µM
  TGI: 29.8 µM
[6]
  GI50: 1.79 µM
  TGI: 6.21 µM
[7]
  GI50: 31 µM
  TGI: > 100 µM
[8]
  GI50: 1.25 µM
  TGI: 3.31 µM
[9]
  GI50: 1.71 µM
  TGI: 3.14 µM
[10]
  GI50: 3.33 µM
  TGI: 11.3 µM

## CC(C)c1cc(CN(C)C)c(O)c(C(C)(C)C)c1
[1]
  TGI: 76.2 µM
[2]
  TGI: 42.5 µM
[3]
  TGI: 32.5 µM
[4]
  TGI: > 100 µM
[5]
  TGI: 69.3 µM
[6]
  TGI: 42.5 µM
[7]
  TGI: 37.4 µM
[9]
  TGI: > 100 µM
[10]
  TGI: > 100 µM

## COC(=O)Nc1nc2cc(OC)c(OC)cc2c(=O)[nH]1
[1]
  TGI: > 100 µM
[2]
  TGI: > 100 µM
[4]
  TGI: > 100 µM
[5]
  TGI: > 100 µM
[6]
  TGI: > 100 µM
[7]
  TGI: 37 µM
[9]
  TGI: > 100 µM
[10]
  TGI: > 100 µM

## N=C(c1ccc2ccccc2c1)c1ccccc1Cc1ccccc1
[2]
  TGI: 98.9 µM
[3]
  TGI: > 100 µM
[4]
  TGI: > 100 µM
[5]
  TGI: > 100 µM
[6]
  TGI: 67.8 µM
[7]
  TGI: > 100 µM
[8]
  TGI: > 100 µM
[9]
  TGI: > 100 µM
[10]
  TGI: > 100 µM

## NC(=O)C(N)=O
[1]
  TGI: > 100 µM
[3]
  TGI: > 100 µM
[4]
  TGI: > 100 µM
[5]
  TGI: > 100 µM
[6]
  TGI: > 100 µM
[7]
  TGI: > 100 µM
[8]
  TGI: > 100 µM
[9]
  TGI: > 100 µM
[10]
  TGI: > 100 µM

## Nc1nc(N)c2c(n1)NC(=O)c1c(c3ccccc3n1Cc1ccc(Cl)cc1)C2
[1]
  TGI: > 100 µM
[2]
  TGI: > 100 µM
[3]
  TGI: 56.4 µM
[4]
  TGI: > 100 µM
[5]
  TGI: > 100 µM
[6]
  TGI: 72 µM
[7]
  TGI: 84.7 µM
[8]
  TGI: 20.4 µM
[9]
  TGI: 46.9 µM
[10]
  TGI: 66.9 µM

## CC(C)(C)N1C(C(=O)c2ccccc2)C1c1ccccc1 (stereo not given)
[2]
  TGI: > 100 µM
[3]
  TGI: > 100 µM
[5]
  TGI: > 100 µM
[6]
  TGI: > 100 µM
[8]
  TGI: > 100 µM
[9]
  TGI: > 100 µM

## O=C(CSc1nc2ccccc2s1)c1sc2sc3ccccc3[n+]2c1[O-]
[1]
  TGI: > 100 µM
[2]
  TGI: > 100 µM
[3]
  TGI: > 100 µM
[4]
  TGI: > 100 µM
[5]
  TGI: > 100 µM
[6]
  TGI: > 100 µM
[7]
  TGI: > 100 µM
[8]
  TGI: > 100 µM
[9]
  TGI: > 100 µM
[10]
  TGI: > 100 µM

## O=C1c2ccccc2C(=O)c2c(Nc3ccc4c5c(cccc35)C(=O)c3ccccc3-4)cccc21
[1]
  TGI: > 100 µM
[2]
  TGI: > 100 µM
[3]
  TGI: > 100 µM
[4]
  TGI: > 100 µM
[6]
  TGI: > 100 µM
[7]
  TGI: > 100 µM
[8]
  TGI: > 100 µM
[9]
  TGI: > 100 µM
[10]
  TGI: > 100 µM

## Nc1c2c(=O)[nH]c(=O)c2c(N)c2c(=O)c3ccccc3c(=O)c12
[1]
  TGI: 0.581 µM
[2]
  TGI: 4.96 µM
[4]
  TGI: 3.42 µM
[5]
  TGI: 3.98 µM
[6]
  TGI: > 26.4 µM
[7]
  TGI: 3.07 µM
[8]
  TGI: 51.9 µM
[9]
  TGI: 40.7 µM
[10]
  TGI: > 100 µM

## CC(C)(C)OC(=O)c1cnc(Cl)cn1
[1]
  TGI: > 100 µM
[2]
  TGI: > 100 µM
[3]
  TGI: 62.9 µM
[4]
  TGI: > 100 µM
[5]
  TGI: > 100 µM
[6]
  TGI: > 100 µM
[7]
  TGI: > 100 µM
[8]
  TGI: 18.4 µM
[9]
  TGI: > 100 µM
[10]
  TGI: > 100 µM

## C=CC[N+]12CN3CN(CN(C3)C1)C2
[1]
  TGI: 45.2 µM
[3]
  TGI: 83 µM
[4]
  TGI: 95.5 µM
[5]
  TGI: 55.5 µM
[6]
  TGI: 57.5 µM
[7]
  TGI: > 100 µM
[8]
  TGI: 46.9 µM
[9]
  TGI: 45.4 µM
[10]
  TGI: 58.2 µM

## C#CCOc1c(C(=O)OCC)c(=O)n(C)c2ccccc12
[1]
  TGI: > 100 µM
[2]
  TGI: > 100 µM
[3]
  TGI: > 100 µM
[5]
  TGI: > 100 µM
[6]
  TGI: > 100 µM
[7]
  TGI: > 100 µM
[8]
  TGI: > 100 µM
[9]
  TGI: > 100 µM

## COc1ccc(C[C@H](N)C(=O)NC2C(CO)OC(n3cnc4c(N(C)C)ncnc43)C2O)cc1 (stereo not given in full)
[1]
  TGI: 2.53 µM
[2]
  TGI: 0.446 µM
[3]
  TGI: 0.288 µM
[4]
  TGI: 42.3 µM
[5]
  TGI: 0.481 µM
[6]
  TGI: 0.412 µM
[7]
  TGI: 1.57 µM
[8]
  TGI: 0.591 µM
[10]
  TGI: 0.293 µM
